In patent US20240252456A1, “ORAL COMPOSITION, SKIN COSMETIC AND HAIR COSMETIC” (MARUZEN PHARMACEUTICALS CO., LTD., priority 2021, published 2024):

What was measured:
[1] = tested on: Normal human neonatal epidermal keratinocytes (NHEK); assay: Laminin-332 production promotive action test; type: cell-based; conditions: 25 μmol/L, 48 hours, A/B×100 vs no sample
Protocol: Normal human neonatal epidermal keratinocytes (NHEK) were precultured in a 75 cm^2 flask using normal human epidermal keratinocyte growth medium (KGM), and the cells were collected by a trypsin treatment. The collected cells were diluted with a medium obtained by removing BPE from KGM (KGM-BPE) to a cell density of 1.0×10^5 cells/mL, then seeded with 500 μL per well in a 24-well plate, and cultured for 1 day.
After the culturing was completed, the medium was removed, and 500 μL of the test sample (Sample 1, see Table 11 below for final concentration) dissolved in KGM-BPE was added to each well, and culturing was performed for 48 hours. As a control, culturing was performed in the same manner using KGM-BPE to which no sample was added. After the culturing was completed, 100 μL of the medium supernatant was transferred to an ELISA plate and adsorbed to the plate at 37° C. for 2 hours, and then the amount of adsorbed laminin-332 was measured by ELISA method. From the obtained measurement results, the laminin-332 production promotion rate (%) was calculated using the following equation.
Laminin-332 production promotion rate (%)=A/B×100
Terms in the equation represent the following respective ones. • A: Laminin-332 amount with test sample addition • B: Laminin-332 without sample addition

CLDN4 mRNA = assay: Claudin-4 (CLDN4) mRNA expression promotive action test; type: cell-based, human; conditions: 100 μmol/L; NHEK, 24 hours, corrected with GAPDH
Protocol: (§1) Normal human neonatal epidermal keratinocytes (NHEK) were precultured using normal human epidermal keratinocyte growth medium (KGM), and the cells were collected by a trypsin treatment. The collected cells were diluted with KGM to a cell density of 15×10^4 cells/mL, then seeded with 2 mL portions in a 6-well plate (30×10^4 cells/well), and cultured overnight under conditions of 37° C. and 5% CO2. After culturing, the medium was replaced with normal human epidermal keratinocyte basal medium (KBM, the above KGM without addition of growth additives (hEGF, BPE, insulin, antibacterial agents, hydrocortisone)), and culturing was further performed for 24 hours.
(§2) After culturing for 24 hours, the medium was removed, and 2 mL of the test sample (Sample 1, see Table 20 below for final concentrations) dissolved in KBM was added to each well, and culturing was performed under conditions of 37° C. and 5% CO2 for 24 hours. As a control, culturing was performed in the same manner using KBM to which no sample was added. After culturing, the medium was removed, total RNA was extracted using ISOGEN II (available from NIPPON GENE CO., LTD.), each RNA amount was measured using a spectrophotometer, and the total RNA was prepared so as to be 150 ng/μL.
For CLDN4 and GAPDH as an internal standard, the expression levels of mRNA were measured using the above total RNA as a template. […]

OCLN mRNA = assay: Occludin (OCLN) mRNA expression promotive action test; type: cell-based, human; conditions: NHEK, 24 hours, corrected with GAPDH
Protocol: as §1
as §2, with “of each of” for “of the”, “test samples (Samples 1 and 3,” for “test sample (Sample 1,”
For OCLN and GAPDH as an internal standard, the expression levels of mRNA were measured using the above total RNA as a template. Detection was performed through a two-step real-time RT-PCR reaction using a real-time PCR device, Thermal Cycler Dice Real Time System III (available from Takara Bio Inc.), with PrimeScript™ RT Master Mix (Perfect Real Time) (available from Takara Bio Inc.) and TB Green® Fast qPCR Mix (available from Takara Bio Inc.). Primers available from Takara Bio Inc. were used. The expression level of OCLN mRNA was obtained as a value corrected with a value of GAPDH based on total RNA preparations prepared from cells cultured “with test sample addition” and “without sample addition.” From the obtained values, the OCLN mRNA expression promotion rate (%) was calculated using the following equation. […]

SPT mRNA = assay: Serine palmitoyltransferase (SPT) mRNA expression promotive action test; type: cell-based, human; conditions: NHEK, 24 hours, corrected with GAPDH
Protocol: as §1
as §2, with “16” for “20”, “concentration)” for “concentrations)”
For SPT and GAPDH as an internal standard, the expression levels of mRNA were measured using the above total RNA as a template. […]

Row | SMILES | Laminin-332 production promotion rate [1] | CLDN4 mRNA expression promotion rate (CLDN4 mRNA) [%] | OCLN mRNA expression promotion rate (OCLN mRNA; 25 μmol/L) [%] | OCLN mRNA expression promotion rate (OCLN mRNA; 100 μmol/L) [%] | SPT mRNA expression promotion rate (SPT mRNA; 25 μmol/L) [%] | SPT mRNA expression promotion rate (SPT mRNA; 100 μmol/L) [%]
1 | O=C(O)CCc1ccc(O)c(O)c1 [Sample 1, 3,4-Dihydroxyhydrocinnamic acid] | 142. 0% | 489.7 | 209.9 | 557.3 | 114.6 | 149.9
2 | O=C(O)CCc1ccccc1 [Sample 3, 3-phenylpropionic acid] |  |  | 141.5 |  |  | 
